Read-outs that look alike come from different tables or passages of the source.

Data set [1] relates to Parkinson's disease. Particulars: chronic oral levodopa, after initial 3-6 years; cited from earlier work.
The conditions of data set [2]: cited from earlier work.
The nature of data set [3]: in vivo. Particulars: rabbit, 0.5 mg/kg; for AUC: AUC (area under the concentration vs time curve); for MRT: MRT (mean residence time).
For data set [4] the following is noted: administered in a cream; cited from earlier work.
How the values of data set [5] were obtained:
Human skin samples were obtained from white female patients undergoing breast reduction surgery and prepared for in vitro permeation studies. Samples were stratum corneum from breasts of patients (Sample A) and (Samples B & C). A 2.0 cm^2 section of the skin tissue was placed in a Franz cell holder and maintained under phosphate buffered saline (PBS: 0.01M phosphate, 0.9% NaCl, pH 6.0) until testing. PBS (6.8 to 7.3 ml) was placed on the receptor side of the Franz cell. […] The cell was incubated at 35±1° C. A 250 μl sample was taken from the receptor medium at the following times: 0, 1/2, 1, 2, 4, and 6 hours. An equal volume of PBS was replaced each time a sample was withdrawn.
Samples were pre-filtered (0.45 μm) prior to injection. Samples (50 μl) were injected on an Altima (Alltech Associates) C18 column (15 cm×4.3 mm) with guard column. The mobile phase consisted of a 60:40 mixture of 5 mM sodium dodecylsulfate in 1 mM NH4 PO4 buffer, pH 3.0 and acetonitrile.

The conditions of data set [6]: man, cited from earlier work.
For data set [7] the following is noted: rabbit.
For data set [8], the system named is skin. Particulars: rabbit, in vivo, 0.5 mg/kg.
The conditions of data set [9]: emulsions with apomorphine HCl and acrylic acid polymer gels, pH 7.6.
Where [10] appears, read: sc, model-dependent, subcutaneous, n=6, mean.
Where [11] appears, read: topical or ocular, model-independent.
Setting [12] is: in vivo, topical or ocular, 0.5 mg/kg.
Where [13] appears, read: subcutaneous, 0.5 mg/kg, n=6, mean.

On to `N[C@@H](Cc1ccc(O)c(O)c1)C(=O)O` [levodopa], for which the “patients with movement abnormalities” value in data set [1] was 40-60 % of patients.
For the compound `CN1CCc2cccc3c2[C@H]1Cc1ccc(O)c(O)c1-3` [Apomorphine, apomorphine], the duration of action result in data set [2] (Parkinson's disease, movement disorders) is reported as “short duration of action”. Moreover, in [2] (oral or sublingual), the “adverse effects of oral or sublingual administration” value was “stomatitis, and the development of buccal ulcers”; the “breakdown in the liver” value is reported as “breakdown of the drug in the liver”. Also, in data set [3] (sc), the CL/F was found to be 31 ± 5 mL/min/kg, the Cmax worked out at 331 ± 46 ng/mL, the Tmax was 25.8 min and the concentration at 4 h is 3 ± 1 ng/mL. This compound also had a k el in [3] (sc) of 0.00035 s⁻¹. In data set [3] (setting [10]), this compound gave an AUC of 309 ng·h/mL and an MRT of 52 min. In data set [3] (sc, model-independent), the AUC is 297 ng·h/mL and the MRT is 50 min. In addition, in data set [3] (sc, Vd (apparent volume of distribution)), the Vd/F came to 1.45 ± 0.12 L/kg. In data set [3] (sc, Vdss, model-dependent), this compound had a Vd/F of 1.1 ± 0.3 L/kg. Also, in data set [3] (topical or ocular), the CL/F came to 37 ± 1 mL/min/kg, the Cmax was 56 ± 12 ng/mL, the Tmax was 29.4 min and the k el was 0.000233 s⁻¹. In data set [3] (setting [11]), this compound gave an AUC of 104 ng·h/mL and an MRT of 168 min. The Vd/F in data set [3] (topical or ocular, Vd (apparent volume of distribution)) was determined as 2.72 ± 0.36 L/kg. Besides, the “plasma levels of apomorphine” value in data set [4] is listed as “No detectable plasma levels”. Also, in [5], the “FLUX, AVERAGE” value came to 1.61 μg/cm^2 /hr; the “In vitro transdermal permeation, TIME 0 hours” value was determined as 0; the “In vitro transdermal permeation, TIME 0 hours, AVERAGE” value was determined as 0; the “In vitro transdermal permeation, TIME 0.5 hours, AVERAGE” value was determined as 0.44. In addition, in data set [5], the “In vitro transdermal permeation, TIME 1 hour, AVERAGE” value is given as 2.05; the “In vitro transdermal permeation, TIME 2 hours, AVERAGE” value is recorded as 2.93; the “In vitro transdermal permeation, TIME 4 hours, AVERAGE” value was 7.03; the “In vitro transdermal permeation, TIME 6 hours, AVERAGE” value amounted to 6.30. Besides, the “Vd (mean)” value in data set [6] (i.v. injection) was 2 L/kg. Besides, in [6] (subcutaneous injection), the “Vd (mean)” value is 2 L/kg and the “tmax (range)” value is 7 to 16 min. Further, in data set [7] (in vivo), the “Time for absorption of 10% of the drug” value turned out to be 11.4 ± 3.4 min and the “Time for absorption of 50% of the drug” value was 105.7 ± 23.9 min. Besides, in data set [7] (in vivo, 0.5 mg/kg), the “absorption of the drug after percutaneous administration” value was “absorption of the drug in all tested animals”; the “bioequivalence (F) of percutaneous route vs subcutaneous administration” value turned out to be 35%; the “duration of the first, rapid absorption phase” value came to 1 h; the “plasma concentration between the fourth and the fifth hour” value is “an increase in the plasma concentration”. In data set [7] (in vivo, 0.5 mg/kg), the “plasma levels after removal of the gel” value is reported as “decreased” and the “time until which absorption persisted” value was 450 min. In data set [7] (in vivo, sc), the “Time for absorption of 10% of the drug” value worked out at 4.0 ± 0.7 min and the “Time for absorption of 50% of the drug” value amounted to 19.9 ± 2.9 min. Besides, in data set [7] (in vivo, sc, 0.5 mg/kg), the “absorption of the available amount of the drug after 150 minutes” value was “practically complete”, the “k12 (transfer rate constant)” value worked out at 0.005 L/min, the “k13 (transfer rate constant)” value was found to be 0.057 L/min and the “k21 (transfer rate constant)” value came out at 0.027 L/min. Moreover, in data set [7] (in vivo, sc, 0.5 mg/kg), the “ka (exponent of the fitted function)” value was 0.088 L/min, the “tmax (time to peak plasma concentration)” value is 25.8 ± 4.9 min and the “α (exponent of the fitted function)” value is 0.044 L/min. Also, in [7] (setting [12]), the plasma level plateau lay in the range of 10 to 15 ng/mL, the “stable mean plasma level after the second hour” value was 10 ng/mL and the “tmax (time to peak plasma concentration)” value was determined as 29.4 ± 7.8 min. For the same compound, the “Cl, comparison of routes” value in data set [7] (subcutaneous vs percutaneous, 0.5 mg/kg) is given as “not different between the two routes”. In data set [7] (setting [13]), the “A (coefficient of the fitted function)” value was determined as 712 ng/mL, the “B (coefficient of the fitted function)” value was determined as 298 ng/mL and the “C0 (coefficient of the fitted function)” value is on record as 1,010 ng/ml. Moreover, the local adverse effect result in data set [8] is on record as “No local adverse effect”.
Take `N[C@@H](CCC(=O)N[C@@H](CS)C(=O)NCC(=O)O)C(=O)O` [glutathione]: the “antioxidant suitability for apomorphine HCl emulsions and gels” value in [9] is listed as “acceptable antioxidant”.

Values taken from patent US5939094A (priority 1996, dated 1999).
